Measured values as given in patent publication US20260078119A1, “DEGRADER COMPOUNDS AND USES THEREOF” (Bristol-Myers Squibb Company, priority 2024, published 2026).

Assays:
FAK = biological target: T1, FAK (Homo sapiens, UniProt Q05397); assay: FAK-HiBiT Degradation Assay; type: cell-based; conditions: for DC50: read-out: FAK HiBiT EC50; for FAK HiBiT Ymin: lower limit of the four parameter fit (value A), Ymax derived using DMSO control, JHH-4-FAK-HiBiT cells, two hours
T1 construct: homozygous knock-in of a HiBiT tag (Promega Corporation, Madison, WI) to the C-terminus of the FAK gene in its natural genomic locus; endogenous in cells; host or cells: JHH-4-FAK-HiBiT clone d01 (CRISPR-Cas9 knock-in at the endogenous locus)
T1 sequence (Q05397 whole entry): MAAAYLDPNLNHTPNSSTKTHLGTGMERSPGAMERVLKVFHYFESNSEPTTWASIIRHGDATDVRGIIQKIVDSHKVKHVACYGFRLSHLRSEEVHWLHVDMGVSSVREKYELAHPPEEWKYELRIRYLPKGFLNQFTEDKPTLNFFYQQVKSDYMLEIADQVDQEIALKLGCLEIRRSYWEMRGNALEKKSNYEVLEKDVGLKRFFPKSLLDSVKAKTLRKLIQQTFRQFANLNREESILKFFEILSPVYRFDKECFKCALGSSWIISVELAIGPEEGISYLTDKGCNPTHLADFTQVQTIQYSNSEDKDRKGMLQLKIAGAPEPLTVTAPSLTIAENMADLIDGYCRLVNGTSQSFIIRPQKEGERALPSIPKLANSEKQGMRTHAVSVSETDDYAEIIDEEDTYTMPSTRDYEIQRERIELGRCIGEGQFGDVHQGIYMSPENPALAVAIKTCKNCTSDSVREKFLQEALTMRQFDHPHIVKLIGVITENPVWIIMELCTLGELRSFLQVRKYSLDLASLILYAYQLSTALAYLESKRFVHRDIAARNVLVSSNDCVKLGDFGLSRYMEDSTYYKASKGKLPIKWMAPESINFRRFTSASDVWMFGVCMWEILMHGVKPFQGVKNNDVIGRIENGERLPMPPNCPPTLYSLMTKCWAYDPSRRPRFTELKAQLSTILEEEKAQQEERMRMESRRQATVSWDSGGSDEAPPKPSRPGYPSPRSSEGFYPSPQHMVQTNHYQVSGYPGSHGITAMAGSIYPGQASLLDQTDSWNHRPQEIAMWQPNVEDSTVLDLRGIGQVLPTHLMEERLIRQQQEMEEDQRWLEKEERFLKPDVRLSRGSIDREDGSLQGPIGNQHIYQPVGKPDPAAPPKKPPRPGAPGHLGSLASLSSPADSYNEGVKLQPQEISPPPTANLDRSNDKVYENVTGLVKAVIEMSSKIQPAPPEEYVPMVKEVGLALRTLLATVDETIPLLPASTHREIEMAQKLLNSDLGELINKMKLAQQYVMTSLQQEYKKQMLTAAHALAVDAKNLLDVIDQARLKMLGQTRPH
Text: To generate JHH-4-FAK-HiBiT cells for the FAK degradation assay, JHH-4 cells (Japanese Collection of Research Biosources Cell Bank, Japan) were transfected with ribonucleoprotein reagents to introduce, by CRISPR-Cas9 editing, the homozygous knock-in of a HiBiT tag (Promega Corporation, Madison, WI) to the C-terminus of the FAK gene in its natural genomic locus. Clonal cell populations were established by expanding single cells after CRISPR-Cas9 editing, with a clonal cell line named JHH-4-FAK-HiBiT clone d01 confirmed by next generation DNA sequencing to contain the expected HiBiT edited FAK gene and was selected for FAK degradation screening. Cells were selected and maintained in complete DMEM media (DMEM, 10% Heat Inactivated FBS, and Non-Essential Amino Acids at 37° C. and 5% CO2). Cells were passaged every 3-4 days by reseeding 0.5×10^6 cells in a T75 flask.
Cells were dispensed into 384-well white plates (Corning #3570, NY) that were pre-spotted with compounds using an acoustic dispenser (Echo acoustic transfer system, Beckman Coulter Life Sciences, Carlsbad, CA) as a 10-point dose response curve with a 3-fold dilution starting at 1 μM and including a DMSO control. Twenty-five microliters of media containing 2000 JHH-4-FAK-HiBiT Clone d01 cells was dispensed per well. Assay plates were incubated at 37° C. with 5% CO2 for two hours. After incubation, 25 μL of Nano-Glo HiBiT Lytic Reagent Working Solution (Promega Corporation, Madison, WI) was added to each well and incubated at room temperature for 10 minutes protected from light. After 10 minutes, luminescence was read on a PHERAstar luminometer (BMG Labtech, Cary, NC).
To determine the half-maximal effective concentration (EC50) values for FAK-HiBIT degradation, a four parameter logistic model was used: (Sigmoidal Dose-Response Model)(FIT=(A+((B−A)/1+((C/x)^D)))) where C is the inflection point (EC50), D is the Hill slope, and A and B are the low and high limits of the fit respectively). The lower limit of the fit (value A) is referred to as Ymin. The maximum limit constraint, Ymax, was derived using DMSO control. The curves were processed and evaluated using Dotmatics Atlas (Insightful Science, LLC, Boston, MA).

CAL-51 cells = assay: CAL-51 Cell Proliferation Assay; type: cell-based; conditions: for EC50: Homo sapiens, 120 hours incubation, 10-point dose response, 4-fold dilutions starting at 10 μM, Cell-Titer-Glo, read-out: CAL-51 Prolif EC50; for CAL-51 Prolif Ymin: minimal percent of DMSO control observed in the concentrations tested (Ymin-obs), 120 hours
Text: CAL-51 cells were obtained from Bristol Myers Squibb internal cell banks (originally sourced from DSMZ-German Collection of Microorganisms and Cell Cultures GmbH, Germany) and cultured in RPMI complete media (RPMI-1640, 10% Fetal Bovine serum, 1× Antibiotic-Antimycotic, and 1× Non-Essential Amino Acids). Compounds were dispensed into 384-well plates using an acoustic dispenser (Beckman Coulter Life Sciences, Carlsbad, CA) in duplicate with 14 compounds on each plate. For each compound, a 10-point dose response was printed at 4-fold dilutions starting at 10 μM. The DMSO concentration was kept constant for a final assay concentration of 0.1% per well assuming 50 uL final media volume. Compound plates were sealed and frozen at −20° C. until use.
For each assay batch, compound plates were thawed and allowed to reach room temperature, and cells were seeded at 350 cells per well in 50 μl complete RPMI media. After 120 hours of incubation at 37° C. and 5% CO2, cells were lysed by addition of 25 μL of Cell-Titer-Glo Reagent (Promega Corporation, Madison, WI), as per manufacturer's instructions, protected from light, shaken for 20 minutes, and total luminescence read by a CLARIOstar Plus plate reader (BMG LabTech, Cary, NC). Total luminescence signal is linearly correlated with cell number remaining in the well.
Luminescence data was processed per plate by subtracting reagent-only “blank” well luminescence from all measured values and calculating a percent of DMSO control value for each treatment well. Then, to determine the half-maximal effective concentration (EC50) values for cell growth inhibition, a four parameter logistic model was fit to the data for each DMSO-normalized compound: Sigmoidal Dose-Response Model: (FIT=(A+((B−A)/1+((C/x)^D)))) where C is the inflection point (EC50), D is the Hill slope, and A and B are the low and high limits of the fit respectively. The lower limit of the fit (value A) is referred to as Ymin-calculated. The minimal percent of DMSO control that is observed in the concentrations tested for each compound is labeled as “Ymin-obs”, and was recorded and reported in the tables. Sigmoidal fit curves were processed and evaluated using Dotmatics Atlas (Insightful Science, LLC, Boston, MA).

[1] = JHH-4-FAK-HiBiT clone d01 cells, two hours incubation, 10-point dose response, 3-fold dilution starting at 1 μM, Nano-Glo HiBiT luminescence

SMILES | DC50 (FAK; [1]) [nM] | FAK HiBiT Ymin (FAK) | EC50 (FAK; [1]) [nM] | EC50 (CAL-51 cells) [nM] | CAL-51 Prolif Ymin (CAL-51 cells)
O=C1CCC(N2Cc3cc(Cn4ncc5c(-c6ncc(C(F)(F)F)cc6Cl)c(F)c(N6CC(F)C6)nc54)ccc3C2=O)C(=O)N1 (stereo not shown) [Example 3, 3-[5-({4-[3-chloro-5-(trifluoromethyl)pyridin-2-yl]-5-fluoro-6-(3-fluoroazetidin-1-yl)-1H-pyrazolo[3,4-b]pyridin-1-yl}methyl)-1-oxo-2,3-dihydro-1H-isoindol-2-yl]piperidine-2,6-dione] | 0.29 | 8.97 |  | 1.42 | 23.98
O=C1CCC(N2Cc3cc(Cn4ccc5c(-c6ncc(F)cc6Cl)cc(N6CC(F)C6)nc54)ccc3C2=O)C(=O)N1 (stereo not shown) [Example 17, 3-(5-((4-(3-chloro-5-fluoropyridin-2-yl)-6-(3-fluoroazetidin-1-yl)-1H-pyrrolo[2,3-b]pyridin-1-yl)methyl)-1-oxoisoindolin-2-yl)piperidine-2,6-dione] | 3.36 | 7.42 |  | 3.46 | 28.46
O=C1CC[C@H](N2Cc3cc(Cn4ncc5c(-c6ncc(C(F)(F)F)cc6Cl)cc(N6CCOCC6)nc54)ccc3C2=O)C(=O)N1 [Example 131, (3S)-3-[5-({4-[3-chloro-5-(trifluoromethyl)pyridin-2-yl]-6-(morpholin-4-yl)-1H-pyrazolo[3,4-b]pyridin-1-yl}methyl)-1-oxo-2,3-dihydro-1H-isoindol-2-yl]piperidine-2,6-dione] | ≥ 1000 | 92.07 |  | 3.1 | 59.06
O=C1CC[C@H](N2Cc3cc(Cn4ncc5c(-c6ccc(OCC(F)(F)F)cc6Cl)cc(N6CC(F)C6)nc54)ccc3C2=O)C(=O)N1 [Example 52, (3S)-3-[5-({4-[2-chloro-4-(2,2,2-trifluoroethoxy)phenyl]-6-(3-fluoroazetidin-1-yl)-1H-pyrazolo[3,4-b]pyridin-1-yl}methyl)-1-oxo-2,3-dihydro-1H-isoindol-2-yl]piperidine-2,6-dione] | 2.4 | 8.38 |  | 1.13 | 22.49
O=C1CC[C@H](N2Cc3cc(Cn4ncc5c(-c6ncc(F)cc6Cl)cc(N6CC(F)C6)nc54)cc(F)c3C2=O)C(=O)N1 [Example 42, (3S)-3-(5-{[4-(3-chloro-5-fluoropyridin-2-yl)-6-(3-fluoroazetidin-1-yl)-1H-pyrazolo[3,4-b]pyridin-1-yl]methyl}-7-fluoro-1-oxo-2,3-dihydro-1H-isoindol-2-yl)piperidine-2,6-dione] | 1.24 | 5.70 |  | 1.92 | 24.80
O=C1CC[C@H](N2Cc3cc(Cn4ncc5c(-c6ccc(F)cc6F)cc(N6CC(F)C6)nc54)ccc3C2=O)C(=O)N1 [Example 30, (3S)-3-(5-{[4-(2,4-difluorophenyl)-6-(3-fluoroazetidin-1-yl)-1H-pyrazolo[3,4-b]pyridin-1-yl]methyl}-1-oxo-2,3-dihydro-1H-isoindol-2-yl)piperidine-2,6-dione] | 0.72 | 7.40 |  | 0.77 | 26.67
N#Cc1ccc(-c2cc(N3CCC3)nc3c2c(Cl)nn3Cc2ccc3c(c2)CN(C2CCC(=O)NC2=O)C3=O)c(Cl)c1 (stereo not shown) [Example 70, 4-[6-(azetidin-1-yl)-3-chloro-1-{[2-(2,6-dioxopiperidin-3-yl)-1-oxo-2,3-dihydro-1H-isoindol-5-yl]methyl}-1H-pyrazolo[3,4-b]pyridin-4-yl]-3-chlorobenzonitrile] | 5.6 | 13.38 |  |  | 
CN(C)c1cc(-c2ncc(C#N)cc2Cl)c2ccn(Cc3ccc4c(c3)CN(C3CCC(=O)NC3=O)C4=O)c2n1 (stereo not shown) [Example 13, 5-chloro-6-(6-(dimethylamino)-1-((2-(2,6-dioxopiperidin-3-yl)-1-oxoisoindolin-5-yl)methyl)-1H-pyrrolo[2,3-b]pyridin-4-yl)nicotinonitrile] |  | 4.03 | 7.86 |  | 
O=C1CCC(N2Cc3cc(Cn4ncc5c(-c6ncc(C7CC7)cc6F)cc(N6CC(F)C6)nc54)ccc3C2=O)C(=O)N1 (stereo not shown) [Example 86, 3-(5-{[4-(5-cyclopropyl-3-fluoropyridin-2-yl)-6-(3-fluoroazetidin-1-yl)-1H-pyrazolo[3,4-b]pyridin-1-yl]methyl}-1-oxo-2,3-dihydro-1H-isoindol-2-yl)piperidine-2,6-dione] | 12.5 | 35.59 |  |  | 

Continued, in another order:

DC50 (FAK; [1]) [nM] | FAK HiBiT Ymin (FAK) | EC50 (FAK; [1]) [nM] | SMILES | EC50 (CAL-51 cells) [nM] | CAL-51 Prolif Ymin (CAL-51 cells)
51.8 | 21.00 |  | O=C1CC[C@H](N2Cc3cc(Cn4ncc5c(-c6ncc(C(F)(F)F)cc6Cl)cc(N6CC(O)C6)nc54)ccc3C2=O)C(=O)N1 [Example 113, (3S)-3-[5-({4-[3-chloro-5-(trifluoromethyl)pyridin-2-yl]-6-(3-hydroxyazetidin-1-yl)-1H-pyrazolo[3,4-b]pyridin-1-yl}methyl)-1-oxo-2,3-dihydro-1H-isoindol-2-yl]piperidine-2,6-dione] | 9.28 | 38.05
6.35 | 7.12 |  | O=C1CC[C@H](N2Cc3cc(Cn4ncc5c(-c6ncc(CF)cc6Cl)cc(N6CC(F)C6)nc54)ccc3C2=O)C(=O)N1 [Example 72, (3S)-3-[5-({4-[3-chloro-5-(fluoromethyl)pyridin-2-yl]-6-(3-fluoroazetidin-1-yl)-1H-pyrazolo[3,4-b]pyridin-1-yl}methyl)-1-oxo-2,3-dihydro-1H-isoindol-2-yl]piperidine-2,6-dione] | 1.78 | 23.41
0.68 | 10.53 |  | O=C1CCC(N2Cc3cc(Cn4cnc5c(-c6ccc(F)cc6F)cc(N6CC(F)C6)nc54)ccc3C2=O)C(=O)N1 (stereo not shown) [Example 22, 3-(5-((7-(2,4-difluorophenyl)-5-(3-fluoroazetidin-1-yl)-3H-imidazo[4,5-b]pyridin-3-yl)methyl)-1-oxoisoindolin-2-yl)piperidine-2,6-dione] | 0.39 | 22.20
8.37 | 4.01 |  | CN(C)c1cc(-c2ccc(C#N)cc2Cl)c2ncn(Cc3ccc4c(c3)CN(C3CCC(=O)NC3=O)C4=O)c2n1 (stereo not shown) [Example 18] |  | 
5.67 | 11.11 |  | N#Cc1ccc(-c2cc(N3CC(F)C3)nc3c2cnn3Cc2ccc3c(c2)CN(C2CCC(=O)NC2=O)C3=O)c(F)c1 (stereo not shown) [Example 71, 4-(1-{[2-(2,6-dioxopiperidin-3-yl)-1-oxo-2,3-dihydro-1H-isoindol-5-yl]methyl}-6-(3-fluoroazetidin-1-yl)-1H-pyrazolo[3,4-b]pyridin-4-yl)-3-fluorobenzonitrile] |  | 
